From patent publication US8715155B2, “Embryo development and survival” (University of Tennessee Research Foundation, priority 2005, dated 2014)
Where two headings read alike, the source gives them in different places.

How the values were obtained:
[1] = tested on: 16- to 32-cell pre-compacted (in vitro-produced) embryos; assay: Culture of pre-compacted (in vitro-produced) embryos with PGF2α or PGE2; assay type: cell-based, bovine; details: vs control
Method: Embryos are produced by a modified protocol for in vitro production of embryos described by Edwards and Hansen, Biol. Reprod. 55:340-346 (1996). Pre-compacted 16- to 32-cell stage embryos are rapidly washed in KSOM media (Biggers, J. D. 1991. J. Reprod. Fertil. 91:543) supplemented with polyvinyl alcohol (PVA) 3 mg/ml (0.3%). The embryos are evaluated for quality (normal shape, defined blastomeres, extruded blastomeres, cytoplasmic fragmentation, even cytoplasm), are evenly sorted in four groups (formed by embryos of good quality), are transferred to experimental treatments in a 4-well plate as described below, and are returned to the incubator (5.5% CO2, 7% O2, and 87.5% N2 at 38.5° C.). Embryos remain in each treatment for 4 additional days. Embryo development is assessed using IETS (International Embryo Transfer Society) guidelines for classification of bovine embryos.
Dilutions (i.e., treatments) of PGF2α (Cayman Chemical Co.; Ann Arbor, Mich.) are prepared to obtain 0, 1, 10 and 100 ng/mL. Treatments are placed in each well of a 4-well plate (500 μL/well) and equilibrated in the incubator (5.5% CO2, 7% O2, and 87.5% N2 at 38.5° C.) for at least 5 h prior to embryo placement. […]
Data are analyzed to test for blastocyst development and hatching rates using an incomplete block design and a randomized block design, respectively. […]

recipient cattle = details: intramuscular injection immediately prior to or after non-surgical embryo transfer; vs controls; cited from earlier work
[2] = tested on: progestin-supplemented cows; details: cited from earlier work
[3] = tested on: Pre-compacted 16- to 32-cell stage bovine embryos; details: 1 ng/ml PGF on days 4 to 6 (48 h culture)
Method: Pre-compacted 16- to 32-cell stage bovine embryos (day 4 post fertilization) are washed in KSOM-PVA and divided into four groups, each of which is cultured for 48 hours in KSOM-PVA containing one of the following: (1) 1000 nM AL-8810, n=95 (AL-8810 group); (2) 1 ng/ml PGF, n=91 (PGF group); (3) 1000 nM AL-8810+1 ng/ml PGF, n=90 (AL-8810+PGF group); or (4) KSOM-PVA without AL-8810 or PGF, n=84 (Control group).
Following the 48 hour culture, embryos from each group are placed in HEPES-TALP and embryonic development is assessed by a technician who is uninformed of the treatments of the embryos in each group. Embryos from each treatment group are washed in KSOM-PVA and transferred to a 4-well plate with KSOM-PVA for further culture until day 8 post fertilization, when embryonic development is again assessed.

[4] = tested on: compacted (in vivo-derived) morula stage embryos; assay: Culture of compacted (in vivo-derived) morula-stage embryos with PGF2α; assay type: cell-based, bovine; details: 0.1, 1 or 10 ng/mL PGF2α for 24 h
Method: In vivo-derived glycerol-frozen morula-stage bovine embryos are thawed utilizing a three-step glycerol removal procedure. After washing, embryos are allowed to regain normal morphology for 30 min in Vigro holding medium and are sorted by stage of development and quality according with the IETS guidelines for classification of bovine embryos. For this study, a total of 4 replicates are used.
Schrick, et al, Biol. Reprod. 49:617-621 (1993) reported 0.64 ng/mL of PGF2α in flush media from short cycle cows and a negative association of PGF2α concentration with embryo quality. Based on these findings, concentrations of 0 (control, KSOM-PVA), 0.1, 1, and 10 ng/mL of PGF2α in culture medium are selected as treatments. Each treatment is placed in a different well of a 4-well plate (500 μL/well) and then maintained in the incubator (5.5% CO2, 7% O2, and 87.5% N2 at 38.5° C.) for at least 5 h before placement of embryos to allow equilibration of medium. […]
Morula embryos (Stage 4) of quality grade 1, 2 or 3 are rapidly washed four times in KSOM-PVA and randomly assigned to one of four treatments: 1) control (n=110); 2) 0.1 ng/mL PGF2α (n=108); 3) 1 ng/mL PGF2α (n=109), 4) 10 ng/mL PGF2α (n=109) and are placed in the incubator (5.5% CO2, 7% O2, and 87.5% N2 at 38.5° C.). […] Data are analyzed as in Example 1.a.

CCCCC[C@H](O)/C=C/[C@H]1[C@H](O)CC(=O)[C@@H]1C/C=C\CCCC(=O)O [PGE2, Prostaglandin E2]
blastocyst development ([1]; 5 ng/mL PGE2 in medium, P>0.10): does not differ between control and PGE2 treatments

Cc1c(Nc2ncccc2C(=O)O)cccc1C(F)(F)F [flunixin meglamine]
pregnancy rates (recipient cattle): Pregnancy rates were significantly higher

prostaglandin F2α [PGF2α]
pregnancy rates ([2]; PGF2α administered between days 5 and 8 of pregnancy, vs saline controls): decreased pregnancy rates compared to saline controls | pregnancy rates ([2]; PGF2α administered on days 10 to 13 or days 15 to 18): no effect on pregnancy rates | percentage of embryos reaching blastocyst stage on day 8 [3]: decreases the percentage of embryos reaching blastocyst stage on day 8 | development at least two stages beyond morula (IETS guidelines) ([4]; then 48 h without, P>0.10): does not differ between treatments | hatching rates ([4]; vs control, P=0.05): decreased hatching rates when compared to control | blastocyst development ([1]; 1, 10 or 100 ng/mL PGF2α in medium, 4 days culture, P=0.002): reduced blastocyst development when compared to control
